Tests used:
Assay type in all cases: cell-based
[1] = target: T1, adenosine A3 receptor (A3R) (Homo sapiens, UniProt P0DMS8); experiment: Inhibition of adenosine A3 receptor cAMP signaling pathway in CHO-K1/A3R cells (HTRF cAMP dynamic 2 kit); conditions: Table 3; for IC50: CHO-K1/A3R cells, cAMP, 10 μM forskolin, 5 nM 2Cl-IB-MECA; for IC50 ratio (A3R/A2aR): selectivity A3R over A2aR
T1 construct: expressed in transfected cells; host or cells: CHO-K1
T1 sequence (P0DMS8 1-318): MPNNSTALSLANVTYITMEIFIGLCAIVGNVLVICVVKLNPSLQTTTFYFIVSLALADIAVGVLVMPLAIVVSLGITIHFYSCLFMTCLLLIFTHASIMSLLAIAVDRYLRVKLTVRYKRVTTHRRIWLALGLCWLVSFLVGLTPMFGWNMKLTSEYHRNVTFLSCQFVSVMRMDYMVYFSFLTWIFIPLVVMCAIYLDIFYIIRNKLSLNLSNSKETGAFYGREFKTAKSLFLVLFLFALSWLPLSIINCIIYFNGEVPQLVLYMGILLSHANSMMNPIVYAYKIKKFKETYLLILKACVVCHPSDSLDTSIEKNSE
From the text: (§1) Test Example 1. Determination of the inhibitory activities of the compounds of the present disclosure on the adenosine A2a receptor (A2aR) cAMP signaling pathway, the adenosine A1 receptor (A1R) cAMP signaling pathway and the adenosine A3 receptor (A3R) cAMP signaling pathway.
(§2) The inhibitory activities of the compounds of the present disclosure on the adenosine A2a receptor (A2aR) cAMP signaling pathway, the adenosine A1 receptor cAMP signaling pathway and the adenosine A3 receptor cAMP signaling pathway were determined by the following methods. The experimental method is briefly described as follows:
CHO-K1/A3R cells were cultured in DMEMIF12 medium containing 10% fetal bovine serum and 10 μg/mL puromycin. The cells were digested with the cell dissociation buffer during the experiment. The cells were resuspended in the HBSS buffer containing 20 mM HEPES and 0.1% bovine serum albumin and counted, and the cell density was adjusted to 5×10^5 cells/mL. In 384-well plates, each well was added with 12.5 μL of the cell suspension, and 6.25 μL of the test compounds (4× concentration) formulated with the HBSS buffer containing 20 mM HEPES, 0.1% bovine serum albumin, 54 μM rolipram and 2.7 U/mL adenosine deaminase, and the plates were incubated at room temperature for 30 minutes. Each well was then added with 6.25 μL of forskolin and 2Cl-IB-MECA (4× concentration) formulated with the HBSS buffer containing 20 mM HEPES, 0.1% bovine serum albumin, […] rolipram and 2.7 U/mL adenosine deaminase, and the plates were incubated at room temperature for 30 minutes. The final concentrations of the compounds were: 100000, 10000, 1000, 100, 10, 1, 0.1 and 0 nM. The final concentration of forskolin was 10 μM. The final concentration of 2Cl-IB-MECA was 5 nM. Intracellular cAMP concentration was determined with cAMP dynamic 2 kits. cAMP-d2 and Anti-cAMP—Eu-Cryptate were diluted respectively with the cAMP lysis buffer at a ratio of 1:4. Each well was added with 12.5 μL of the diluted cAMP-d2, followed by addition of 12.5 μL of the diluted Anti-cAMP—Eu-Cryptate, and the plates were incubated at room temperature in the dark for 1 hour. The HTRF signal values were read by the PHERAstar multi-function microplate reader. IC50 values for the inhibitory activities of the compounds were calculated by Graphpad Prism software, and are shown in Table 3.

[2] = target: T2, adenosine A2a receptor (A2aR) (Homo sapiens, UniProt P29274); experiment: Inhibition of adenosine A2a receptor cAMP signaling pathway in CHO-K1/A2aR cells (HTRF cAMP dynamic 2 kit); conditions: Table 1, 20 nM ethylcarbazole
T2 construct: expressed in transfected cells; host or cells: CHO-K1
T2 sequence (P29274 whole entry): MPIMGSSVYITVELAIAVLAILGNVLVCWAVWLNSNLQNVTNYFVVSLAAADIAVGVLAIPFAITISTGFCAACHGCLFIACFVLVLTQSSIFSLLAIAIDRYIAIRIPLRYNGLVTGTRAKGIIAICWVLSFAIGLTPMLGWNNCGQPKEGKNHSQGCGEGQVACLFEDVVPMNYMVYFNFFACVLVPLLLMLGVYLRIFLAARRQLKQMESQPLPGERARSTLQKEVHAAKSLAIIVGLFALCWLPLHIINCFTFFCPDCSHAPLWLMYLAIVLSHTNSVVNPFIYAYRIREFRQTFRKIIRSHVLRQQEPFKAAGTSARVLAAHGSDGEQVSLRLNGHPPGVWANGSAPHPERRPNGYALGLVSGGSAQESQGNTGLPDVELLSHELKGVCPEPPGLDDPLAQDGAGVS
From the text: as §1, §2
CHO-K1/A2aR cells were cultured in DMEM/F12 medium containing 10% fetal bovine serum and 800 μg/mL Zeocin™. The cells were digested with the cell dissociation buffer during the experiment. The cells were resuspended in the HBSS buffer containing 20 mM HEPES and 0.1% bovine serum albumin and counted, and the cell density was adjusted to 10^6 cells/mL. In 384-well plates, each well was added with 5 μL of the cell suspension, and 2.5 µL of test compounds (4× concentration) formulated with the HBSS buffer containing 20 mM HEPES, 0.1% bovine serum albumin, 54 μM rolipram and 2.7 U/mL adenosine deaminase, and the plates were incubated at room temperature for 30 minutes. Each well was then added with 2.5 μL of ethylcarbazole (4× concentration) formulated with the balanced salt buffer containing 20 mM HEPES, 0.1% bovine serum albumin, 54 μM rolipram and 2.7 U/mL adenosine deaminase, and the plates were incubated at room temperature for 30 minutes. The final concentrations of the compounds were: 10000, 2000, 400, 80, 16, 3.2, 0.64, 0.128, 0.0256, 0.00512, and 0.001024 nM. The final concentration of ethylcarbazole was 20 nM. Intracellular cAMP concentration was determined with cAMP dynamic 2 kits. cAMP-d2 and Anti-cAMP—Eu-Cryptate were diluted respectively with the cAMP lysis buffer at a ratio of 1:4. Each well was added with 5 μL of the diluted cAMP-d2, followed by addition of 5 μL of the diluted Anti-cAMP—Eu-Cryptate, and the plates were incubated at room temperature in the dark for 1 hour. The HTRF signal values were read by the PHERAstar multi-function microplate reader.

[3] = target: T3, adenosine A1 receptor (A1R) (Homo sapiens, UniProt P30542); experiment: Inhibition of adenosine A1 receptor cAMP signaling pathway in CHO-K1/A1R cells (HTRF cAMP dynamic 2 kit); conditions: Table 2; for IC50: CHO-K1/A1R cells, cAMP, 10 μM forskolin, 10 nM CPA; for IC50 ratio (A1R/A2aR): selectivity A1R over A2aR
T3 construct: expressed in transfected cells; host or cells: CHO-K1
T3 sequence (P30542 1-326): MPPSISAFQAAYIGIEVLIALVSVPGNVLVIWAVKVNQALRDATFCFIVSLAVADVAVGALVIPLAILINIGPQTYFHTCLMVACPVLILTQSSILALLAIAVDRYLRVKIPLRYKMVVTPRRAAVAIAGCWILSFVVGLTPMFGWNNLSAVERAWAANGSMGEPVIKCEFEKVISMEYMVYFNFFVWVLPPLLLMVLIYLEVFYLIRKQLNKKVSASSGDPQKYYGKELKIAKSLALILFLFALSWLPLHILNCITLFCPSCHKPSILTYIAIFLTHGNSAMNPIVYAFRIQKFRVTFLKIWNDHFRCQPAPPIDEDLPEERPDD
From the text: as §1, §2
CHO-K1/A1R cells were cultured in DMEMIF12 medium containing 10% fetal bovine serum and 1 mg/mL G418. The cells were digested with the cell dissociation buffer during the experiment. The cells were then resuspended in the HBSS buffer containing 20 mM HEPES and 0.1% bovine serum albumin and counted, and the cell density was adjusted to 5×10^5 cells/mL. In 384-well plates, each well was added with 12.5 μL of the cell suspension, and 6.25 μL of the test compounds (4× concentration) formulated with the HBSS buffer containing 20 mM HEPES, 0.1% bovine serum albumin, 54 μM rolipram and 2.7 U/mL adenosine deaminase, and the plates were incubated at room temperature for 30 minutes. Each well was then added with 6.25 μL of forskolin and N6-cyclopentyladenosine (4× concentration) formulated with the HBSS buffer containing 20 mM HEPES, 0.1% bovine serum albumin, 54 μM rolipram and 2.7 U/mL adenosine deaminase, and the plates were incubated at room temperature for 30 minutes. The final concentrations of the compounds were: 100000, 10000, 1000, 100, 10, 1, 0.1 and 0 nM. The final concentration of forskolin was 10 μM. The final concentration of CPA was 10 nM. Intracellular cAMP concentration was determined with cAMP dynamic 2 kits. cAMP-d2 and Anti-cAMP—Eu-Cryptate were diluted respectively with the cAMP lysis buffer at a ratio of 1:4. Each well was added with 12.5 μL of the diluted cAMP-d2, followed by addition of 12.5 μL of the diluted Anti-cAMP—Eu-Cryptate, and the plates were incubated at room temperature in the dark for 1 hour. The HTRF signal values were read by the PHERAstar multi-function microplate reader.

IC50 [1] [nM]	IC50 ratio (A3R/A2aR) [1]	IC50 [2] [nM]	IC50 [3] [nM]	IC50 ratio (A1R/A2aR) [3]	SMILES
2180	779^	2.8	3690	>10^3	Cc1ccc(-c2nc(N)nc3c(Nc4cccc(CN5CCN(C)CC5)n4)cnn23)o1 [Example 29, 4-(5-Methylfuran-2-yl)-N^8-(6-((4-methylpiperazin-1-yl)methyl)pyridin-2-yl)pyrazolo[1,5-a][1,3,5]triazine-2,8-diamine]
7600	>10^3	2.87	684	238^	Cc1ccc(-c2nc(N)nc3c(Nc4cccc(CN5CC6COCC6C5)n4)cnn23)o1 (stereo not drawn) [Example 30, 4-(5-Methylfuran-2-yl)-N^8-(6-((tetrahydro-1H-furo[3,4-c]pyrrol-5(3H)-yl)methyl)pyridin-2-yl)pyrazolo[1,5-a][1,3,5]triazine-2,8-diamine]
5610	>10^3	3.74	287	78^	Cc1ccc(-c2nc(N)nc3c(Nc4cccc(CN5CC6(COC6)C5)n4)cnn23)o1 [Example 32, N^8-(6-((2-Oxa-6-azaspiro[3.3]heptan-6-yl)methyl)pyridin-2-yl)-4-(5-methylfuran-2-yl)pyrazolo[1,5-a][1,3,5]triazine-2,8-diamine]

From patent US20210032253A1, “PYRAZOLO[1,5-A][1,3,5]TRIAZINE-2-AMINE DERIVATIVE, PREPARATION METHOD THEREFOR AND MEDICAL USE THEREOF” (JIANGSU HENGRUI MEDICINE CO., LTD., priority 2018, published 2021)
